For test [1], the target named is T1, GST-Xa-hAAK1 (Homo sapiens, UniProt Q2M2I8).
T1 construct: made in house
Nature of the test: AAK1 Kinase Assay. In kind it is biochemical. To be noted: IC50 (nM), ATP 22 μM; 3 hours at room temperature; Caliper LabChip 3000. The gist of the method:
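Bacterially expressed GST-Xa-hAAK1 was combined with substrates and compounds (eleven concentrations) and incubated 3 h at room temperature, then stopped with EDTA. Fluorescent substrate and phosphorylated product were separated electrophoretically (Caliper LabChip), and IC50 values came from non-linear regression.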

Test [2] deals with mice. Kind of test: formalin paw test (paw flinching, pain response). In kind it is in vivo, mouse. Here is the method: AAK1 homozygous (−/−) and their wild-type (+/+) littermates were tested using the formalin paw test in order to assess their acute and tonic nociceptive responses. For these tests, Automatic Nociception Analyzers (purchased from the Ozaki lab at University of California, San Diego) were used. A metal band was placed around the left hind paw of each mouse 30 minutes prior to testing. After the 30-minute acclimation period, 20 μl of 5% formalin is subcutaneously injected in the dorsal surface of the left hind paw. Mice were individually housed in cylindrical chambers for 45 minutes. Fresh 5% formalin solution was prepared by diluting formaldehyde (Formalde-fresh 20%, Fisher Scientific, Fair Lawn, N.J.) with distilled water. Investigatory compounds were administered 30 minutes prior to formalin injection.
A computer recorded flinches per minute, total flinches for phase I (acute phase=first 8 minutes), and total flinches for phase II (tonic phase=time between minutes 20-40) through an electromagnetic field. See Yaksh T L, Ozaki G, McCumber D, Rathbun M, Svensson C, Malkmus S, Yaksh M C. An automated flinch detecting system for use in the formalin nociceptive bioassay. J Appl Physiol., 2001; 90:2386-402. Phase 1 and phase 2 data were obtained using homozygous (−/−) mice females (n=16), wild-type females (n=15), homozygous (−/−) mice males (n=9), and wild-type males (n=18).
The same test was used to confirm that the administration of an AAK1 inhibitor can also affect pain response.
A compound of the disclosure was tested in this assay at different doses. Gabapentin and pregabalin were used as positive controls. Results are shown below in Table 3, wherein the effect of gabapentin at 200 mg/kg is considered a 100% response, the % response for the other compounds is relative to the 200 mg/kg dose of gabapentin, “sc” means subcutaneous administration; “po” means oral administration.

Where [3] appears, read: 60 mg/kg sc, % response relative to gabapentin 200 mg/kg (=100%), compound given 30 minutes prior to formalin.
Setting [4] is: 50 mg/kg sc, % response relative to gabapentin 200 mg/kg (=100%), compound given 30 minutes prior to formalin.

T1 sequence (Q2M2I8 whole entry): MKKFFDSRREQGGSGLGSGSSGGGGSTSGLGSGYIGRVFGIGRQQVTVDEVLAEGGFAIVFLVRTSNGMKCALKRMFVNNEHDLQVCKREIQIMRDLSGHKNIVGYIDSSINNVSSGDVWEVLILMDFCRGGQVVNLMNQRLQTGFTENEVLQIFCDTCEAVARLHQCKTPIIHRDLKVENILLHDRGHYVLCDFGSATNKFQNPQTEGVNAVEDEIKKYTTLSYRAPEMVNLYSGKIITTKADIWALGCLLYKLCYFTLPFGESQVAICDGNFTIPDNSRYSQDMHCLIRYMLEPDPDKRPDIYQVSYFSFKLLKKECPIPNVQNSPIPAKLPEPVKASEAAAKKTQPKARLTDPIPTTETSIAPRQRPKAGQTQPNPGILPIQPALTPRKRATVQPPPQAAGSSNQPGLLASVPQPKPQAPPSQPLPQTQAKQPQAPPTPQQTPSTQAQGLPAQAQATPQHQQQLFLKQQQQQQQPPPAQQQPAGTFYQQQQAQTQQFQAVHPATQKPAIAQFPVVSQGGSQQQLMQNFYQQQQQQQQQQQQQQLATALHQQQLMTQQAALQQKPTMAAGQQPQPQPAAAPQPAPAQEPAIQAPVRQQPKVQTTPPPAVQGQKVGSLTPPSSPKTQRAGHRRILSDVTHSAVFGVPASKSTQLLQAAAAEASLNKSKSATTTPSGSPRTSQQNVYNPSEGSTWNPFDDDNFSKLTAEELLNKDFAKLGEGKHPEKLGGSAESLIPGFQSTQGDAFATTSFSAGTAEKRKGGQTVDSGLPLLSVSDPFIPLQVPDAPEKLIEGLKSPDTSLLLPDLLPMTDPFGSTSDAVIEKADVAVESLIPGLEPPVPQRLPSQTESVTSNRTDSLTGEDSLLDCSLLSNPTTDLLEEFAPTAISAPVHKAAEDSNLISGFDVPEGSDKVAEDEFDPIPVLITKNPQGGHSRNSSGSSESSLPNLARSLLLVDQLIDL

With `COc1cc(NC(=O)[C@H](N)CC(C)C)ccc1-c1cnco1` [Example 1, (R)-2-Amino-N-(3-methoxy-4-(oxazol-5-yl)phenyl)-4-methylpentanamide], the IC50 (usually the point on the concentration scale where inhibition reaches its midpoint) in test [1] was 36 nM. This compound also had a Response in test [2] (setting [3]) of 90%.

Turning to `CC(C)C[C@@H](N)C(=O)Nc1ccc(-c2cnco2)c(OC(F)F)c1` [Example 18, (R)-2-Amino-N-(3-(difluoromethoxy)-4-(oxazol-5-yl)phenyl)-4-methylpentanamide], the IC50 in test [1] came to 35 nM. For the same compound, the Response in test [2] (setting [3]) came to 100%.

`CC(C)C[C@H](CN)CC(=O)O` [Pregabalin, pregabalin] returned a Response in test [2] (setting [4]) of 90%.

For the compound `NCC1(CC(=O)O)CCCCC1` [Gabapentin], the Response worked out at 60% in test [2] (setting [4]) and 100% in test [2] (200 mg/kg sc, gabapentin at 200 mg/kg is considered a 100% response).

On to `CC(C)C[C@@H](N)C(=O)Nc1ccc(-c2cnco2)c(Br)c1` [Example 12, (R)-2-Amino-N-(3-bromo-4-(oxazol-5-yl)phenyl)-4-methylpentanamide], for which the 50% inhibitory concentration (IC50) in test [1] was found to be 55 nM.

With `COc1cc(NC(=O)[C@@H](CC(C)C)NCc2csnn2)ccc1-c1cnco1` [Example 67, (R)-2-(((1,2,3-Thiadiazol-4-yl)methyl)amino)-N-(3-methoxy-4-(oxazol-5-yl)phenyl)-4-methylpentanamide], the IC50 in test [1] was 260 nM.

Consider `COc1cc(NC(=O)[C@@H](CC(C)C)NCc2sccc2C)ccc1-c1cnco1` [Example 66, (R)—N-(3-Methoxy-4-(oxazol-5-yl)phenyl)-4-methyl-2-(((3-methylthiophen-2-yl)methyl)amino)pentanamide], for which, in test [1], the IC50 came out at 110 nM.

As for `COc1cc(NC(=O)[C@@H](CC(C)C)NCc2ccccc2O)ccc1-c1cnco1` [Example 62], in test [1], the 50% inhibitory concentration (IC50) stood at 220 nM.

In the case of `COc1cc(NC(=O)[C@H]2C[C@@H](F)CN2)ccc1-c1cnco1` [Example 90, (2R,4R)-4-Fluoro-N-(3-methoxy-4-(oxazol-5-yl)phenyl)pyrrolidine-2-carboxamide], in test [1], the IC50 was 1100 nM.

Consider `COc1cc(NC(=O)[C@H](N)CC(C)C)ccc1-c1ccncn1` [Example 117, (R)-2-Amino-N-(3-methoxy-4-(pyrimidin-4-yl)phenyl)-4-methylpentanamide], for which the IC50 in test [1] was 460 nM.

`COc1cc(NC(=O)[C@H](N)CC(C)C)ccc1-c1cn[nH]c1` [Example 24, (R)-2-Amino-N-(3-methoxy-4-(1H-pyrazol-4-yl)phenyl)-4-methylpentanamide]: the IC50 in test [1] came to 19 nM.

Source of the values: patent US10253027B2, “Aryl lactam kinase inhibitors” (Bristol-Myers Squibb Company, priority 2013, dated 2019).
